Measured values published in article PMC10779116, “Madurastatins with Imidazolidinone Rings: Natural Products or Side-Reaction Products from Extraction Solvents?” (International Journal of Molecular Sciences, 2023).
pIC50: −log10 of the molar value.

Legend:
T. cruzi Y strain = assay: Antiparasitic activity on T. cruzi: image-based intracellular amastigote assay in infected U2OS cells; type: cell-based, Trypanosoma cruzi; conditions: T. cruzi in U2OS host cells, 3 days, normalized by DMSO and benznidazole controls; for Inhibition norm. inf. ratio IC50: number of infected host cells; for pIC50: Trypanosoma cruzi, 72 h, number of parasites in host cell cytoplasm, read-out: Inhibition norm. para. num. IC50
Protocol: All compounds isolated were tested against Trypanosoma cruzi and Leishmania donovani, using the liquid microdilution method. Madurastatins were not active against L. donovani at the highest concentration tested, showing IC50 values higher than 50 µM. […] Human osteosarcoma cell line U2OS (ATCC HTB-96) and rhesus monkey kidney epithelial cell LLM-MK2 (ATCC CCL-7) were purchased from the American Type Culture Collection (ATCC, Manassas, VA, USA). T. cruzi Y strain was maintained as tissue culture trypomastigotes (TCT) by infection to LLC-MK2 cell line. The U2OS human cell was cultivated in DMEM-high-glucose media supplemented with 10% heat-inactivated fetal bovine serum (FBS, Thermo Fisher Scientific, Waltham, MA, USA). To visualize amastigote replication, U2OS cells were seeded in a 384-well plate (4 × 10^3 cells/well) and infected with 5 × 10^4 TCT parasites in DMEM-low-glucose media supplemented with 2% heat-inactivated FBS as previously described. The reference drug 400 μM of benznidazole (positive control), 0.5% DMSO (negative control), and the tested samples were treated on the day of assay and then incubated for 3 days at 37 °C, 5% CO2. After incubation was completed, the cells and parasites were fixed with 4% paraformaldehyde (PFA), and the DNA was stained with 5 μM DRAQ5 (Biostatus, Shepshed, Leicestershire, UK) followed by image acquisition using an automated confocal microscope (Operetta CLS, PerkinElmer, Waltham, MA, USA) with a […] laser at 20× objective. The acquired images were analyzed with Columbus software (v2.3) (PerkinElmer) to quantify cell numbers, parasites numbers, and infection ratio. Data were normalized by positive and negative controls. The activity of the tested samples was determined in terms of IC50 and CC50 calculated with XLfit software (v5) (IDBS, Boston, MA, USA). The quality of the assay data was assessed with Z’ factor, assay windows, and CV [37].

[1] = test system: L. donovani MHOM/ET/67/HU3; assay: Antiparasitic activity on L. donovani: image-based intracellular assay in infected differentiated THP-1 cells; type: cell-based, Leishmania donovani; conditions: L. donovani in PMA-differentiated THP-1 host cells, 3 days, normalized by controls; for Inhibition norm. inf. ratio IC50: number of infected host cells; for pIC50: Leishmania donovani, 72 h, number of parasites in host cell cytoplasm, read-out: Inhibition norm. para. num. IC50
Protocol: All compounds isolated were tested against Trypanosoma cruzi and Leishmania donovani, using the liquid microdilution method. Madurastatins were not active against L. donovani at the highest concentration tested, showing IC50 values higher than 50 µM.
(§1) Human monocyte cell line THP-1 (ATCC TIB-202) was purchased from the American Type Culture Collection (ATCC). The assay for activity against L. donovani was performed as previously described. L. donovani MHOM/ET/67/HU3 was cultivated as promastigotes at 28 °C in M199 (Sigma-Aldrich, St. Louis, MO, USA) with 40 mM HEPES, 0.1 mM adenine, 0.0001% biotin, and 4.62 mM NaHCO3, supplemented with 10% heat-inactivated FBS and incubated 6 days before infection to enrich the proportion of metacyclic promastigotes. THP-1 was cultivated in RPMI medium (Thermo Fisher Scientific) supplemented with 10% heat-inactivated FBS and differentiated with 50 ng/mL of phorbol 12-myristate 13-acetate (PMA, Sigma-Aldrich) before infection. Purified L. donovani parasites were seeded with 1:20 infection ratio in 384-well plates and incubated for 24 h, then followed by the treatment of 4 μM amphotericin B (Sigma-Aldrich) as positive control, 0.5% DMSO as negative control, and tested samples. After additional incubation for 3 days at 37 °C, 5% CO2, the cells and parasites were fixed with 4% PFA and stained with 5 μM DRAQ5. Fluorescent images were acquired from each well using an automated confocal microscope (Operetta CLS) with a […] laser at 20× objective.
(§2) The acquired images were analyzed with Columbus software (v2.3) (PerkinElmer) to quantify cell numbers, parasites numbers, and infection ratio. Data were normalized by positive and negative controls. The activity of the tested samples was determined in terms of IC50 and CC50 calculated with XLfit software (v5) (IDBS, Boston, MA, USA). The quality of the assay data was assessed with Z’ factor, assay windows, and CV [37].

U2OS cells = assay: Host cell cytotoxicity (cell ratio) in the T. cruzi assay; type: cell-based, Human; conditions: number of U2OS host cells in T. cruzi assay, 3 days
Source text: Human osteosarcoma cell line U2OS (ATCC HTB-96) and rhesus monkey kidney epithelial cell LLM-MK2 (ATCC CCL-7) were purchased from the American Type Culture Collection (ATCC, Manassas, VA, USA). T. cruzi Y strain was maintained as tissue culture trypomastigotes (TCT) by infection to LLC-MK2 cell line. The U2OS human cell was cultivated in DMEM-high-glucose media supplemented with 10% heat-inactivated fetal bovine serum (FBS, Thermo Fisher Scientific, Waltham, MA, USA). To visualize amastigote replication, U2OS cells were seeded in a 384-well plate (4 × 10^3 cells/well) and infected with 5 × 10^4 TCT parasites in DMEM-low-glucose media supplemented with 2% heat-inactivated FBS as previously described. The reference drug 400 μM of benznidazole (positive control), 0.5% DMSO (negative control), and the tested samples were treated on the day of assay and then incubated for 3 days at 37 °C, 5% CO2. After incubation was completed, the cells and parasites were fixed with 4% paraformaldehyde (PFA), and the DNA was stained with 5 μM DRAQ5 (Biostatus, Shepshed, Leicestershire, UK) followed by image acquisition using an automated confocal microscope (Operetta CLS, PerkinElmer, Waltham, MA, USA) with a […] laser at 20× objective.
as §2

THP-1 cells = assay: Host cell cytotoxicity (cell ratio) in the L. donovani assay; type: cell-based, Human; conditions: number of THP-1 host cells in L. donovani assay, 3 days
Protocol: as §1, §2

| Structure (SMILES) | Inhibition norm. inf. ratio IC50 (T. cruzi Y strain) | pIC50 (T. cruzi Y strain) | Inhibition norm. inf. ratio IC50 [1] | pIC50 [1] | Cell ratio (%) CC50 (U2OS cells) | Cell ratio (%) CC50 (THP-1 cells) |
| --- | --- | --- | --- | --- | --- | --- |
| CN1C(CCCN(O)C(=O)CCNC(=O)CNC(=O)C2COC(c3ccccc3O)=N2)C(=O)N(C2CCCN(O)C2=O)C1(C)C (stereo not drawn) [D2 (5), madurastatin D2] | >50 µM | 5.05 | >50 µM | < 4.30 | 24.74 µM | >50 µM |
| CN1[C@@H](CCCN(O)C(=O)CCNC(=O)CNC(=O)[C@@H](CO)NC(=O)c2ccccc2O)C(=O)N([C@H]2CCCN(O)C2=O)C1(C)C [H2 (2), madurastatin H2] | >50 µM | < 4.30 | >50 µM | < 4.30 | >50 µM | >50 µM |
| CNC(CCCN(O)C(=O)CCNC(=O)CNC(=O)C1COC(c2ccccc2O)=N1)C(=O)NC1CCCN(O)C1=O (stereo not drawn) [C1 (1), madurastatin C1] | >50 µM | 4.51 | >50 µM | < 4.30 | >50 µM | >50 µM |
| C[C@@H]1N(C)[C@@H](CCCN(O)C(=O)CCNC(=O)CNC(=O)[C@H]2COC(c3ccccc3O)=N2)C(=O)N1[C@H]1CCCN(O)C1=O [33-epi D1 (3), 33-epi-madurastatin D1] | >50 µM | 4.34 | >50 µM | < 4.30 | >50 µM | >50 µM |
| CC1N(C)C(CCCN(O)C(=O)CCNC(=O)CNC(=O)C2COC(c3ccccc3O)=N2)C(=O)N1C1CCCN(O)C1=O (stereo not drawn) [D1 (4), madurastatin D1] | >50 µM | 4.56 | >50 µM | < 4.30 | 46.77 µM | >50 µM |
